In the data set the test system is CCRIS mutagenicity, Ames/micronucleus/aberration tests. In words: CCRIS mutagenicity studies.
Where [1] appears, read: Test System: AMES SALMONELLA TYPHIMURIUM, Strain/Indicator: TA98, Metabolic Activation: NONE, Method: PREINCUBATION
[2] abbreviates: Test System: AMES SALMONELLA TYPHIMURIUM, Strain/Indicator: TA100, Metabolic Activation: NONE, Method: PREINCUBATION
[3] abbreviates: Test System: AMES SALMONELLA TYPHIMURIUM, Strain/Indicator: TA98, Metabolic Activation: RAT, LIVER, S-9, AROCLOR 1254, Method: STANDARD PLATE.
Where [4] appears, read: Test System: AMES SALMONELLA TYPHIMURIUM, Strain/Indicator: TA1537, Metabolic Activation: RAT, LIVER, S-9, AROCLOR 1254, Method: STANDARD PLATE.
[5] abbreviates: Test System: AMES SALMONELLA TYPHIMURIUM, Strain/Indicator: TA98, Metabolic Activation: NONE, Method: STANDARD PLATE.
[6] abbreviates: Test System: AMES SALMONELLA TYPHIMURIUM, Strain/Indicator: TA100, Metabolic Activation: NONE, Method: STANDARD PLATE.

In PubChem BioAssay AID1259407 (Chemical Carcinogenesis Research Information System (CCRIS), 2018) one finds mutagenic call data, which are given here for six compounds.

SMILES strings stand for the structures. The source made the active and inactive calls. The rule behind the calls is not given here.

Take `C=CCOC(=O)C=C`: the mutagenic call runs as follows: (Test System: AMES SALMONELLA TYPHIMURIUM, Strain/Indicator: TA97, Metabolic Activation: HAMSTER, LIVER, S-9, AROCLOR 1254 (10 OR 30%), Method: PREINCUBATION) “inactive; negative”; (Test System: AMES SALMONELLA TYPHIMURIUM, Strain/Indicator: TA97, Metabolic Activation: NONE, Method: PREINCUBATION) “inactive; negative”; (Test System: AMES SALMONELLA TYPHIMURIUM, Strain/Indicator: TA97, Metabolic Activation: RAT, LIVER, S-9, AROCLOR 1254 (10 OR 30%), Method: PREINCUBATION) “inactive; negative”; (Test System: AMES SALMONELLA TYPHIMURIUM, Strain/Indicator: TA98, Metabolic Activation: HAMSTER, LIVER, S-9, AROCLOR 1254 (10%), Method: PREINCUBATION) “inactive; negative”; (Test System: AMES SALMONELLA TYPHIMURIUM, Strain/Indicator: TA98, Metabolic Activation: HAMSTER, LIVER, S-9, AROCLOR 1254 (30%), Method: PREINCUBATION) “inactive; negative”; under setting [1], “inactive; negative”. Also, the mutagenic call was “inactive; negative” (Test System: AMES SALMONELLA TYPHIMURIUM, Strain/Indicator: TA98, Metabolic Activation: RAT, LIVER, S-9, AROCLOR 1254 (10%), Method: PREINCUBATION); “inactive; negative” (Test System: AMES SALMONELLA TYPHIMURIUM, Strain/Indicator: TA98, Metabolic Activation: RAT, LIVER, S-9, AROCLOR 1254 (30%), Method: PREINCUBATION); “inactive; negative” (Test System: AMES SALMONELLA TYPHIMURIUM, Strain/Indicator: TA100, Metabolic Activation: HAMSTER, LIVER, S-9, AROCLOR 1254 (10%), Method: PREINCUBATION); “inactive; negative” (Test System: AMES SALMONELLA TYPHIMURIUM, Strain/Indicator: TA100, Metabolic Activation: HAMSTER, LIVER, S-9, AROCLOR 1254 (30%), Method: PREINCUBATION); “inactive; negative” under setting [2]; “inactive; negative” (Test System: AMES SALMONELLA TYPHIMURIUM, Strain/Indicator: TA100, Metabolic Activation: RAT, LIVER, S-9, AROCLOR 1254 (10%), Method: PREINCUBATION). For the same compound, the mutagenic call runs as follows: (Test System: AMES SALMONELLA TYPHIMURIUM, Strain/Indicator: TA100, Metabolic Activation: RAT, LIVER, S-9, AROCLOR 1254 (30%), Method: PREINCUBATION) “inactive; negative”; (Test System: AMES SALMONELLA TYPHIMURIUM, Strain/Indicator: TA1535, Metabolic Activation: HAMSTER, LIVER, S-9, AROCLOR 1254 (10%), Method: PREINCUBATION) “inactive; negative”; (Test System: AMES SALMONELLA TYPHIMURIUM, Strain/Indicator: TA1535, Metabolic Activation: HAMSTER, LIVER, S-9, AROCLOR 1254 (30%), Method: PREINCUBATION) “inactive; negative”; (Test System: AMES SALMONELLA TYPHIMURIUM, Strain/Indicator: TA1535, Metabolic Activation: NONE, Method: PREINCUBATION) “inactive; negative”; (Test System: AMES SALMONELLA TYPHIMURIUM, Strain/Indicator: TA1535, Metabolic Activation: RAT, LIVER, S-9, AROCLOR 1254 (10%), Method: PREINCUBATION) “inactive; negative”; (Test System: AMES SALMONELLA TYPHIMURIUM, Strain/Indicator: TA1535, Metabolic Activation: RAT, LIVER, S-9, AROCLOR 1254 (30%), Method: PREINCUBATION) “inactive; negative”. The mutagenic call is, setting by setting: (Test System: AMES SALMONELLA TYPHIMURIUM, Strain/Indicator: TA1537, Metabolic Activation: HAMSTER, LIVER, S-9, AROCLOR 1254 (10%), Method: PREINCUBATION) “inactive; negative”; (Test System: AMES SALMONELLA TYPHIMURIUM, Strain/Indicator: TA1537, Metabolic Activation: NONE, Method: PREINCUBATION) “inactive; negative”; (Test System: AMES SALMONELLA TYPHIMURIUM, Strain/Indicator: TA1537, Metabolic Activation: RAT, LIVER, S-9, AROCLOR 1254 (10%), Method: PREINCUBATION) “inactive; negative”.

As to `CC(=O)OC[C@]12C[C@H](OC(=O)CC(C)C)C(C)=C[C@H]1O[C@@H]1[C@H](O)[C@@H](OC(C)=O)[C@@]2(C)[C@]12CO2`, the mutagenic call is “inactive; negative” (Test System: AMES SALMONELLA TYPHIMURIUM, Strain/Indicator: TA98, Metabolic Activation: RAT LIVER S-9, DELOR 103, Method: STANDARD PLATE); “inactive; negative” (Test System: AMES SALMONELLA TYPHIMURIUM, Strain/Indicator: TA98, Metabolic Activation: RAT, LIVER, MICROSOMES, PHENOBARBITAL, Method: STANDARD PLATE); “inactive; negative” under setting [2]; “inactive; negative” (Test System: AMES SALMONELLA TYPHIMURIUM, Strain/Indicator: TA100, Metabolic Activation: RAT LIVER S-9, DELOR 103, Method: STANDARD PLATE); “inactive; negative” (Test System: AMES SALMONELLA TYPHIMURIUM, Strain/Indicator: TA100, Metabolic Activation: RAT, LIVER, MICROSOMES, PHENOBARBITAL, Method: STANDARD PLATE); “inactive; negative” (Test System: AMES SALMONELLA TYPHIMURIUM, Strain/Indicator: TA100, Metabolic Activation: RAT, LIVER, S-9, PHENOBARBITAL, Method: PREINCUBATION). For the same compound, the mutagenic call by setting is: (Test System: CHINESE HAMSTER, Strain/Indicator: V-79/6-THIOGUANINE, Metabolic Activation: NONE, Method: STANDARD PLATE) “active; positive”; (Test System: CHINESE HAMSTER, Strain/Indicator: V-79/6-THIOGUANINE, Metabolic Activation: S-9, Method: STANDARD PLATE) “active; positive”.

As for `C1=Cc2c(cc3ccc4cccc5ccc2c3c45)CC1`, the mutagenic call is “active; positive” under setting [3]; “active; positive” under setting [4]; “active; positive” (Test System: AMES SALMONELLA TYPHIMURIUM, Strain/Indicator: TA1538, Metabolic Activation: RAT, LIVER, S-9, AROCLOR 1254, Method: STANDARD PLATE).

Regarding `Nc1ccc(Oc2ccc([N+](=O)[O-])cc2)cc1`, the mutagenic call reads like this: (Test System: AMES SALMONELLA TYPHIMURIUM, Strain/Indicator: TA98(NR), Metabolic Activation: NONE, Method: PREINCUBATION) “inactive; negative”; (Test System: AMES SALMONELLA TYPHIMURIUM, Strain/Indicator: TA98(NR), Metabolic Activation: RAT, LIVER, S-9, AROCLOR 1254, Method: PREINCUBATION) “active; positive”; under setting [1], “active; positive”; (Test System: AMES SALMONELLA TYPHIMURIUM, Strain/Indicator: TA98, Metabolic Activation: RAT, LIVER, S-9, AROCLOR 1254, Method: PREINCUBATION) “active; positive”; (Test System: AMES SALMONELLA TYPHIMURIUM, Strain/Indicator: TA100(NR), Metabolic Activation: NONE, Method: PREINCUBATION) “active; positive”; (Test System: AMES SALMONELLA TYPHIMURIUM, Strain/Indicator: TA100(NR), Metabolic Activation: RAT, LIVER, S-9, AROCLOR 1254, Method: PREINCUBATION) “active; positive”. The mutagenic call runs as follows: under setting [2], “active; positive”; (Test System: AMES SALMONELLA TYPHIMURIUM, Strain/Indicator: TA100, Metabolic Activation: RAT, LIVER, S-9, AROCLOR 1254, Method: PREINCUBATION) “active; positive”.

As for `N#[N+]c1cccc2c1C(=O)c1ccccc1C2=O`, the mutagenic call under setting [5] was “inactive; negative”; the mutagenic call under setting [3] was “active; positive”; the mutagenic call under setting [6] was “inactive; negative”; the mutagenic call (Test System: AMES SALMONELLA TYPHIMURIUM, Strain/Indicator: TA100, Metabolic Activation: RAT, LIVER, S-9, AROCLOR 1254, Method: STANDARD PLATE) was “active; positive”; the mutagenic call (Test System: AMES SALMONELLA TYPHIMURIUM, Strain/Indicator: TA1535, Metabolic Activation: NONE, Method: STANDARD PLATE) is “inactive; negative”; the mutagenic call (Test System: AMES SALMONELLA TYPHIMURIUM, Strain/Indicator: TA1537, Metabolic Activation: NONE, Method: STANDARD PLATE) was “active; positive”. Further, the mutagenic call under setting [4] was “active; positive”.

As to `Nc1ccc2cc(S(=O)(=O)O)cc(O)c2c1N=Nc1ccc([N+](=O)[O-])cc1S(=O)(=O)O`, the mutagenic call was “inactive; negative” under setting [5]; “inactive; negative” (Test System: AMES SALMONELLA TYPHIMURIUM, Strain/Indicator: TA98, Metabolic Activation: RAT, LIVER, S-9, PHENOBARBITAL, Method: STANDARD PLATE); “inactive; negative” under setting [6]; “inactive; negative” (Test System: AMES SALMONELLA TYPHIMURIUM, Strain/Indicator: TA100, Metabolic Activation: RAT, LIVER, S-9, PHENOBARBITAL, Method: STANDARD PLATE).
